In brackets after ≈: the same amount, converted by molar mass.
Experiments:
[1] = Initial phase I clinical studies, safety of oral doses; type: in vivo; settings: oral doses of 50 to 1600 mg; not dose-related
Method: Initial phase I clinical studies were carried out to assess the safety of oral doses of [D-MeAla]^3-[EtVal]^4-CsA, and to determine the pharmacokinetic profile and safety profile of the drug substance. […] These side effects were not dose-related.

[2] = biological target: T1, human recombinant cyclophilin A (Homo sapiens, UniProt P62937); assay: PPlase activity of cyclophilin A, tight binding inhibitor fit (Garcia-Echverria et al.); type: biochemical; settings: for Et (total enzyme concentration): fit parameter of tight binding equation
T1 construct: purchased Sigma
Method: Commercial human recombinant cyclophilin A (Sigma) was used in the assays. PPlase activity of cyclophilins was determined using a chymotrypsin-coupled spectrophotometric assay according to Garcia-Echverria et al. (BBRC, 191, (1993), 70-75). This method is based on the high trans selectivity of chymotrypsin for peptides of the type N-succinyl-ala-ala-pro-phe-p-nitroanilide. The peptides cleavage liberated the para-nitroaniline moiety that could be detected and quantitated at 390 nm. The hydrolysis of the cis form was limited by the rate of cis-trans isomerisation carried out by cyclophilin A. The peptide was made up in a solution of […] LiCl in 2,2,2-trifluoroethanol at 470 mM to enhance the cis conformer peptides population. The assay was performed on the split beam spectrophotometer and the water bath was set at 5° C. Cyclophilin A (7500 pmol/mg total enzyme concentration; Sigma) were dissolved at 20 nM in a buffer (35 mM HEPES and 0.26 mg/ml chymotrypsin (specific activity 50 units/mg), pH 7.8 with KOH) and were incubated for 6 minutes at room temperature followed by 54 minutes in the water bath. […] Then 3.5 ml of the incubated cyclophilin was added to the sample cuvette. […] Peptide was added at 25 μM to initiate the reaction and the change in absorbance was monitored at 10 data points per second. As a control, rates were also determined for a parallel reaction that lacked cyclophilin. These blank rates of peptide hydrolysis (i.e. in the absence of cyclophilin) were subtracted from rates in the presence of cyclophilin A.
The initial rates obtained from the PPlase assays were analysed by first order regression analysis by using first order transformation of the traces of the time course of the change in the absorbance at 390 nm. Total enzyme concentration (Et), the inhibitor dissociation constant (Ki) and the rate constant for the rate limiting reaction was calculated with the software FigSyS (2003, Biosoft) by fitting the data obtained from the regression analysis in the tight binding inhibitor multiprotein equation.
v=k*Et*P−k*(−b−sqrt(b*b−4*c))/2
where b is defined as b=−(Et*P+I+Ki) and c is c=Et*P*I. Once Et, Ki and k were calculated by the computer for a given set of data, a graphic representation of the data was plotted and the line fitted to the points assuming tight inhibitor binding to a single protein, defined by the following equations:
v=K*Et*P−K(B−sqrt(B*B−4*C))/2
where B=Et*P+I+Ki and C=Et*P*I.

CD4^+ PBMCs = assay: Mixed lymphocyte reaction, [3H]-thymidine incorporation; type: cell-based; settings: for immunosuppressive activity (interpretation of Table 2): mixed lymphocyte reaction; for % Stimulation (relative): cyclosporin 1 μg/ml, five days
Method: In this assay, cyclosporins were dissolved in ethanol (10 mg/ml). Freshly isolated CD4^+ PBMCs from two healthy donors were mixed subsequent to inactivation by irradiation of one of the populations (stimulator cells; S). […] R) was determined by [^3H]-thymidine incorporation. The assay was conducted reciprocally with the two cell populations, each being inactivated and stimulated in turn. Stimulation (%) of responder cells was calculated by the formula: […] Sample refers to a mixture of stimulator and responder cells. Background represents a control in which only stimulator cells are mixed.

[3] = test system: Jc1-Luc virus (full-length chimeric genome between HCV strains J6 and JFH1); assay: Antiviral luciferase assay in hepatoma cells infected with recombinant HCV; type: cell-based; settings: infected Huh-7-Lunet and Huh-7.5 cells, 72 hours, FIGS. 1 and 2
From the text: The method used hepatoma cells that had been infected with an infectious full length chimeric HCV construct or the same virus that was modified to carry a luciferase receptor gene.
Infectious HCV viruses of full-length chimeric genome between HCV strains J6 and JFH1 (Jc1) were used to inoculate the hepatoma cells of the assays. The construct of Jc1 virus was also modified to obtain a bicistronic genome carrying a luciferase reporter gene (Jc1-Luc).
Assays used either Huh-7-Lunet or Huh-7.5 cells (Lohmann et al., Science 285(5424), (1999), 110-113). Cells were grown in Dulbecco's modified Eagle's Medium (DMEM; Gibco) supplemented with 10% heat-inactivated fetal bovine serum (FCS) (Integro), 1× non-essential amino acids (Gibco), 100 IU/ml penicillin (Gibco), 100 μg/ml streptomycin (Gibco) or 25 μg/ml hygromycin (Gibco) for Huh-mono cells at 37° C. and 5% CO2. For antiviral (replication) assays, Huh-7-Lunet and Huh-7.5 cells were seeded at a density of 2×104 or 4×10^4 cells per well of a 12-well plate. […]
The inhibition of viral replication were estimated by luciferase assay. […] Firefly luciferase activity was measured according to Krieger et al. (J Virol, 75(10), (2001), 4614-4624). […] Finally, luminescence was measured by using a Lumat LB9507 luminometer (Berthold) for 20 samples.

[4] = MTT assay of cytostatic/cytotoxic effect in Huh 5-2 cells; settings: human
From the text: Cell density and cytostatic effects were estimated in parallel cultures in regular 96-well plates (Beckton-Dickinson) using the MTT assay (CellTiter 96® AQueous Non-Radioactive Cell Proliferation Assay, Promega). In this assay, 3-(4,5-dimethylthiazol-2-yl)-5-(3-carboxymethoxy-phenyl)-2-(4-sulfophenyl)-2H-tetrazolium (MTS) is bioreduced to a formazan that is quantitated at 498 nm in a plate reader. Formazan production is directly correlated with number of life cells.
(§1) Results from these experiments permitted calculation of EC50 for the different cyclosporins, which is the effective concentration required to inhibit HCV replicon replication by 50%, and of CC50, which is the concentration required that inhibits the proliferation of exponentially growing cells by 50%, and a selectivity index SI, which is the ratio between CC50 and EC50.

[5] = test system: HCV replicon in Huh-9-13 cells; assay: HCV replicon clearance and rebound in Huh-9-13 cells; type: cell-based; settings: 0.5 or 1 μg/ml for 7 consecutive passages, then G418 1000 μg/ml for 2 passages; FIG. 3
Method: Assays used Huh-9-13 cells, human hepatoma cells (Huh-7) (Lohmann et al., Science 285(5424), (1999), 110-113) Cells were grown in the usual complete medium DMEM without G418 pressure.
RT-PCR were performed on extracts of viral RNA of samples taken at different passage points. The forward and reverse primers used were 5′-[sequence]-3′ and 5′-[sequence]-3′, respectively. The fluorogenic probe was 5′-[sequence]-3′. As an internal control, a plasmid containing part of the neomycin phosphotransferase gene sequence was used. Results were analysed and expressed as a quantity of replicon RNA (ng) per 1'000 cells and used to draft a graph.

[6] = test system: HCV replicon in MH-14 cells; settings: cited from earlier work; for HCV RNA accumulation inhibited: Northern blot and quantitative RT-PCR, MH-14 cells
[7] = test system: HCV replicon in Huh 5-2 cells; settings: EC50 derived from RNA titers by quantitative RT-PCR; asterisk = lower of two independently determined values
Method: (§2) Assays used Huh 5-2 cells that contained a bicistronic RNA encoding a firefly luciferase-ubiquitin-neomycin phosphotransferase fusion protein and HCV proteins NS3-5. The viral sequences originated from an HCV virus of genotype 1b. Cells were cultured in RPMI 1640 medium (Gibco) supplemented with 10% fetal calf serum, 2 mM glutamine (Life Technologies), 1× non-essential amino acids (Life Technologies), 100 u/ml penicillin, 100 μg/ml streptomycin and 250 μg/ml G418 (Geneticin, Life Technologies) at 37° C. and 5% CO2. For antiviral (replication) assays, cells were seeded at a density of 7000 cells/well in 96-well View Plates™ (Packard) in the same medium except for G418. After a 24-h incubation, medium was removed, serial dilutions of test compounds in medium were added, and cells were incubated for an additional 72 h.
The fluorogenic probe was 5′-[…]-3′.
as §1

[8] = test system: luciferase-containing HCV minireplicon in Huh 5-2 cells
Method: as §2
Antiviral effects were estimated either by luciferase assay or quantitative RT-PCR. To carry out luciferase assays, medium was removed, and cells were washed with PBS. Subsequent to lysis in 50 μl of Glo-lysis buffer (Promega) for 15 min, 50 μl of Stead-Glo Luciferase Assay Reagent (Promega) were added to cell lysates. Luciferase activity was measured using a luminometer, and the signal from each test well was expressed as a percentage of the signal measured in wells of cultures not exposed to a test compound. […]

T1 sequence (P62937 whole entry): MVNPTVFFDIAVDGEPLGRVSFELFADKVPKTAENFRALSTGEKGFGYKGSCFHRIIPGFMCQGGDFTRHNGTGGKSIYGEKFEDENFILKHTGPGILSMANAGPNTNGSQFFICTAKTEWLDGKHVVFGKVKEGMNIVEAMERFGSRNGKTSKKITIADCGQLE

Row | Molecule | side effects [1] | k (rate constant for the rate limiting reaction) ([2]; cyclophilin A) [s⁻¹] | Et (total enzyme concentration) [2] [pmol/mg] | immunosuppressive activity (interpretation of Table 2) (CD4^+ PBMCs) | antiviral activity [3] | CC50 ([4]; Huh 5-2 cells) [µg/mL] | outcome of treated cultures in the presence of G418 (rebound phase) [5] | HCV RNA titer reduction ([6]; 1 μg/ml, 7-day exposure) | HCV RNA accumulation inhibited [6] | SI values [7] | Ki ([2]; cyclophilin A, inhibitor 2-50 nM) [nM] | % Stimulation (relative) (CD4^+ PBMCs; co-culture R1 × S2) [%] | % Stimulation (relative) (CD4^+ PBMCs; co-culture R2 × S1) [%] | CC50 [4] [µg/mL] | effectiveness in reducing HCV RNA titer ([6]; compared with CsA) | EC50 (μg/ml) +/− Std. Dev. ([8]; luciferase assay, Huh 5-2 cells, 72 h) [µg/mL] | Selectivity index ([8]; ratio between CC50 and EC50, luciferase and MTT assays)
1 | C/C=C/C[C@@H](C)[C@@H](O)[C@H]1C(=O)N[C@@H](CC)C(=O)N(C)[C@H](C)C(=O)N(CC)[C@@H](C(C)C)C(=O)N[C@@H](C(C)C)C(=O)N(C)[C@@H](CC(C)C)C(=O)N[C@@H](C)C(=O)N[C@H](C)C(=O)N(C)[C@@H](CC(C)C)C(=O)N(C)[C@@H](CC(C)C)C(=O)N(C)[C@@H](C(C)C)C(=O)N1C [[D-MeAla]^3-[EtVal]^4-CsA] | Mild and short-lived side effects were observed including nausea, vomiting, abdominal pain, mild headaches | 0.16 ± 0.0074 | 7500 | essentially devoid of immunosuppressive activity | dose-dependent antiviral activity | > 27 | the cultures died |  |  |  |  |  |  |  |  |  | 
2 | Cyclosporin A [CsA] |  | 0.17 ± 0.0069 | 7500 |  | dose-dependent antiviral activity |  |  | about 200 fold | inhibited |  |  |  |  |  |  |  | 
3 | C/C=C/C[C@@H](C)[C@@H](O)[C@H]1C(=O)N[C@@H](CC)C(=O)N(C)CC(=O)N(C)[C@@H]([C@@H](C)CC)C(=O)N[C@@H](C(C)C)C(=O)N(C)[C@@H](CC(C)C)C(=O)N[C@@H](C)C(=O)N[C@H](C)C(=O)N(C)[C@@H](CC(C)C)C(=O)N(C)[C@@H](CC(C)C)C(=O)N(C)[C@@H](C(C)C)C(=O)N1C [[MeIle]^4-CsA] |  | 0.17 ± 0.0068 | 7500 | essentially devoid of immunosuppressive activity |  |  |  |  |  | 73 | 2.11 ± 0.32 | 84 | 75 | 14 (≈ 11.6 µM) | about equally as effective as CsA | 0.22 (≈ 0.183 µM) | 64
4 | C/C=C/C[C@@H](C)C(=O)[C@H]1C(=O)N[C@@H](C(C)C)C(=O)N(C)CC(=O)N(C)[C@@H](CC(C)C)C(=O)N[C@@H](C(C)C)C(=O)N(C)[C@@H](CC(C)C)C(=O)N[C@@H](C)C(=O)N[C@H](C)C(=O)N(C)[C@@H](CC(C)C)C(=O)N(C)[C@@H](CC(C)C)C(=O)N(C)[C@@H](C(C)C)C(=O)N1C [PSC 833] |  |  |  |  |  |  |  |  | not |  |  |  |  |  |  |  | 

Source: US20080139463A1, “Use Of [D-Meala]3-[Etval]4-Cyclosporin For The Treatment Of Hepatitis C Infection And Pharmaceutical Composition Comprising Said [D-Meala]3-[Etval]4-Cyclosporin” (priority 2005, published 2008)
